pEC50, pIC50: −log10 of the molar value. Where two headings read alike, the source gives them in different places.

The nature of data set [1]: Pharmacokinetic evaluation, oral exposure in rats. It counts as in vivo. As to conditions: male Sprague-Dawley rats, single oral dose 10 mg/kg via oral gavage, plasma. As to the method: Pharmacokinetic studies of select compounds were performed to assess the pharmacokinetic properties. Male Sprague-Dawley rats were administered a single oral dose of the test compound at 10 mg/kg (dose concentration: 2 mg/mL, dose volume: 5 ml/kg) via oral gavage. Blood samples were collected via jugular vein at pre-dose, post-dose 5 min, 15 min, 30 min, 1 h, 2 h, 4 h, 6 h, 8 h, 10 h and 24 h, and centrifuged (8000 rpm for 6 minutes at 2-8° C.). The resulting plasma fractions were analyzed by LC/MS/MS to determine the concentration of the test compound.

The target in data set [2] is T1, human Plasma Kallikrein (Homo sapiens (Human), UniProt P03952). The data set is described as follows: In vitro enzyme inhibition of human plasma kallikrein (Pro-Phe-Arg-AMC cleavage). It counts as biochemical. As to conditions: human plasma kallikrein, PFR-AMC substrate, 37° C.; read-out: hPK IC50. The procedure, abridged: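 Human plasma kallikrein preincubated 5 min at 37 °C with compound in 50 mM Tris-HCl pH 7.5, 150 mM NaCl, 0.01% Triton X-100. Reaction started with Pro-Phe-Arg-AMC, fluorescence read every 43 s for 1 h at 37 °C. IC50 from highest mean velocity over 20 reads (~15 min).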

Data set [3] has as its target T1, human Plasma Kallikrein. The data set is described as follows: Human whole blood kallikrein inhibition (ellagic acid-activated human plasma, Z-FR-2-AMC substrate). In kind it is biochemical. On the procedure:
The ability of the compounds disclosed herein to inhibit human plasma kallikrein activity was quantified according to the procedures below.
All dilutions were prepared in an assay buffer comprising 50 mM Tris-HCl pH 7.2, 150 mM NaCl, and 0.01% Triton X-100.
Human plasma was thawed on ice and centrifuged for 15 min at 4° C. to remove platelets. A 1 mM stock solution of ellagic acid was diluted to 8 μM and mixed with human plasma, after removing platelets, at a ratio of 1:0.8. The mixture of human plasma and ellagic acid was further diluted 32-fold in the assay buffer, to yield the final mixture for use in the inhibition assay.
A 22.5 μL volume of the final mixture of human plasma and ellagic acid was added to a 96-well microwell plate and the plate was incubated for 15 min at 37° C.
The test compound solution was prepared to provide final concentrations of 20 μM, 5 μM, 1.25 μM, 312.5 nM, 78.125 nM, 19.531 nM, 4.883 nM, 1.221 nM, 0.305 nM, and 0.076 nM. Each test compound concentration was tested in duplicates.
In addition to the inhibitor control and test wells, the 96 well assay plate included positive control wells which contain the mixture of human plasma and ellagic acid without test compounds, and background wells which contain neither the mixture of human plasma and ellagic acid nor the test compounds. The total volume of liquid in positive control and background wells was brought up to 35 μL using the assay buffer.
The assay plate containing test compounds mixed with human plasma and ellagic acid and appropriate controls was incubated at 37° C. for 5 min. A 10 mM stock solution of substrate Z-FR-2-AMC was diluted to 133.2 μM in the assay buffer, and 15 μL of the diluted substrate was added to each well, to yield a final substrate concentration of 40 μM in each well. The reagents were mixed by shaking the plate gently for 30 sec.
The enzyme reaction was quantified by immediate kinetic reading of the assay plate using excitation/emission wavelengths of 330 nm/440 nm respectively. Fluorescence intensity was recorded for 60 min, using a time interval of 43 sec.
The inhibition activity of the test compounds were evaluated using the IC50 values, calculated according to the dose-response curve of the test compounds, fitted using the “log(inhibitor)−response(variable slope)” equation in GraphPadPrism software (GraphPad Software, Inc.).
The percentage inhibition (EC50) was calculated using the following equation:
[formula] where, Mean(BG) is the average value of the fluorescence intensity of the background wells and Mean(PC) is the average value of the fluorescence intensity of the positive control wells.

Where [4] appears, read: human plasma activated with ellagic acid, Z-FR-2-AMC 40 μM, 37° C., read-out: HWB EC50.

T1 sequence (P03952 391-638 limits assumed): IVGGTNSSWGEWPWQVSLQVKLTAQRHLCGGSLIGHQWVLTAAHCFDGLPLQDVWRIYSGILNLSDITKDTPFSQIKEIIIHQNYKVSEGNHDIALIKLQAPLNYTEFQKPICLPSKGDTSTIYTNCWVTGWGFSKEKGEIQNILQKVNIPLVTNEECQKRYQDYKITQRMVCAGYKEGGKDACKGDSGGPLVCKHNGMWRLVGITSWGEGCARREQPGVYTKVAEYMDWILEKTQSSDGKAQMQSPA
T1 sequence (P03952 20-390 partner limits assumed): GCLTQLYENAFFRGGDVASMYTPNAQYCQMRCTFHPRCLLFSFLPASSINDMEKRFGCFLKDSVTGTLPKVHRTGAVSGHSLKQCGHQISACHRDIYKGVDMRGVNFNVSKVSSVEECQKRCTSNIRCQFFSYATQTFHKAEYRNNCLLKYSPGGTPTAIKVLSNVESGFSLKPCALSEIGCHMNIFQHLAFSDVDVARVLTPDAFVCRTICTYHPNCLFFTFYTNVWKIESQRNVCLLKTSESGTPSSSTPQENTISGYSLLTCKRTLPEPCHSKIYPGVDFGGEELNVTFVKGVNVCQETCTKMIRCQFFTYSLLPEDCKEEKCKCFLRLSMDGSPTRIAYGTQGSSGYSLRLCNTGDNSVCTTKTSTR

The AUC is the area under the concentration-time curve, a measure of exposure. As usually defined, the pIC50 is −log10 of the IC50, conventionally taken in molar units. The pEC50 is the negative decadic logarithm of the EC50, by convention in mol/L. With `Cc1cc(N)nc(C)c1CNC(=O)c1cn(Cc2ccc3ncc(Cl)cc3c2)c(N)n1` [Example 28, 2-amino-N-((6-amino-2,4-dimethylpyridin-3-yl)methyl)-1-((3-chloroquinolin-6-yl)methyl)-1H-imidazole-4-carboxamide], in data set [1] (rat, read-out: AUC), the AUC is under 100 ng·h/mL. The pIC50 in data set [2] is over 7.00. The pEC50 in data set [3] (setting [4]) was over 7.00.

Consider `Cc1cc(N)nc(C)c1CNC(=O)c1cn(Cc2ccc3ncc(Cl)cc3c2)c2ccncc12` [Example 35, N-((6-amino-2,4-dimethylpyridin-3-yl)methyl)-1-((3-chloroquinolin-6-yl)methyl)-1H-pyrrolo[3,2-c]pyridine-3-carboxamide], for which the AUC entry in data set [1] is “BLQ”. Further, the negative logarithm of the IC50 (pIC50) in data set [2] is over 7.00. The pEC50 in data set [3] was over 7.00.

For the molecule `Cc1cnc2c(C(N)=O)cc(Cn3cc(C(=O)NCc4c(C)cc(N)nc4C)c(C#N)n3)cc2c1` [Example 78, 6-((4-(((6-amino-2,4-dimethylpyridin-3-yl)methyl)carbamoyl)-3-cyano-1H-pyrazol-1-yl)methyl)-3-methylquinoline-8-carboxamide], the AUC in data set [1] (rat, read-out: AUC) is under 100 ng·h/mL. Moreover, in data set [2], the pIC50 was over 7.00. For the same molecule, in data set [3] (setting [4]), the pEC50 was over 7.00.

As to `Cc1nc(N)ccc1CNC(=O)c1nn(Cc2ccc3ncc(Cl)cc3c2)c2ccc(=O)[nH]c12` [Example 139, N-((6-amino-2-methylpyridin-3-yl)methyl)-1-((3-chloroquinolin-6-yl)methyl)-5-oxo-4,5-dihydro-1H-pyrazolo[4,3-b]pyridine-3-carboxamide], the AUC in data set [1] (rat, read-out: AUC) fell in the range of 100 to 1000 ng·h/mL. Besides, the pIC50 in data set [2] is over 7.00. This molecule gave a pEC50 in data set [3] of over 7.00.

Consider `Cc1cc(N)nc(C)c1CNC(=O)c1oc(Cc2ccc3ncc(Cl)cc3c2)nc1C(F)(F)F` [Example 37, N-((6-amino-2,4-dimethylpyridin-3-yl)methyl)-2-((3-chloroquinolin-6-yl)methyl)-4-(trifluoromethyl)oxazole-5-carboxamide], for which the AUC in data set [1] (rat, read-out: AUC) lay in the range of 100 to 1000 ng·h/mL. The pIC50 in data set [2] is over 7.00. For the same molecule, the pEC50 in data set [3] (setting [4]) is over 7.00.

As to `Cc1cc(N)nc(C)c1CNC(=O)c1cn(Cc2cc(C#N)c3ncc(Cl)cc3c2)nc1C#N` [Example 69, N-((6-amino-2,4-dimethylpyridin-3-yl)methyl)-1-((3-chloro-8-cyanoquinolin-6-yl)methyl)-3-cyano-1H-pyrazole-4-carboxamide], in data set [1] (rat, read-out: AUC), the AUC was under 100 ng·h/mL. For the same molecule, the pIC50 in data set [2] is over 7.00. Further, in data set [3] (setting [4]), the pEC50 is over 7.00.

As to `Cc1cc(N)nc(C)c1CNC(=O)c1cn(Cc2ccc3ncc(Cl)cc3c2)c2nccc(C#N)c12` [Example 127, N-((6-amino-2,4-dimethylpyridin-3-yl)methyl)-1-((3-chloroquinolin-6-yl)methyl)-4-cyano-1H-pyrrolo[2,3-b]pyridine-3-carboxamide], the AUC in data set [1] (rat, read-out: AUC) lay within 100 to 1000 ng·h/mL. Moreover, in data set [2], the pIC50 is over 7.00. In data set [3], the pEC50 was over 7.00.

As for `Cc1cc(N)nc(C)c1CNC(=O)c1cn(Cc2ccc3ncc(Cl)cc3c2)nn1` [Example 10, N-((6-amino-2,4-dimethylpyridin-3-yl)methyl)-1-((3-chloroquinolin-6-yl)methyl)-1H-1,2,3-triazole-4-carboxamide], the AUC in data set [1] (rat, read-out: AUC) was 1000 to 10000 ng·h/mL. The pIC50 in data set [2] was over 7.00. The pEC50 in data set [3] (setting [4]) was over 7.00.

In the case of `Cc1cc(N)nc(C)c1CNC(=O)c1cnn(Cc2ccc3ncc(Cl)cc3c2)n1` [Example 21, N-((6-amino-2,4-dimethylpyridin-3-yl)methyl)-2-((3-chloroquinolin-6-yl)methyl)-2H-1,2,3-triazole-4-carboxamide], the AUC in data set [1] (rat, read-out: AUC) was 1000 to 10000 ng·h/mL. Besides, in data set [2], the pIC50 was over 7.00. In addition, the pEC50 in data set [3] (setting [4]) is over 7.00.

Turning to `Cc1cc(N)nc(C)c1CNC(=O)c1nn(Cc2ccc3ncc(Cl)cc3c2)c2cncc(C#N)c12` [Example 129, N-((6-amino-2,4-dimethylpyridin-3-yl)methyl)-1-((3-chloroquinolin-6-yl)methyl)-4-cyano-1H-pyrazolo[3,4-c]pyridine-3-carboxamide], in data set [1] (rat, read-out: AUC), the AUC is under 100 ng·h/mL. Further, the pIC50 in data set [2] was over 7.00. In addition, in data set [3], the pEC50 was over 7.00.

Turning to `Cc1nc(N)ccc1CNC(=O)c1cn(Cc2ccc3ncc(C4CC4)cc3c2)nc1C#N` [Example 66, N-((6-amino-2-methylpyridin-3-yl)methyl)-3-cyano-1-((3-cyclopropylquinolin-6-yl)methyl)-1H-pyrazole-4-carboxamide], in data set [1] (rat, read-out: AUC), the AUC is 100 to 1000 ng·h/mL. In data set [2], the pIC50 was over 7.00. For the same molecule, in data set [3] (setting [4]), the pEC50 was over 7.00.

Consider `Cc1cc(N)nc(C)c1CNC(=O)c1cn(Cc2ccc3ncc(C(F)(F)F)cc3c2)nc1C#N` [Example 73, N-((6-amino-2,4-dimethylpyridin-3-yl)methyl)-3-cyano-1-((3-(trifluoromethyl)quinolin-6-yl)methyl)-1H-pyrazole-4-carboxamide], for which the AUC in data set [1] (rat, read-out: AUC) fell in the range of 100 to 1000 ng·h/mL. Further, the pIC50 in data set [2] was over 7.00. Further, in data set [3] (setting [4]), the pEC50 was over 7.00.

As to `N#Cc1nn(Cc2cc(F)c3ncc(Cl)cc3c2)cc1C(=O)NCc1ccc2c(N)nccc2c1` [Example 54, N-((1-aminoisoquinolin-6-yl)methyl)-1-((3-chloro-8-fluoroquinolin-6-yl)methyl)-3-cyano-1H-pyrazole-4-carboxamide], in data set [1] (rat, read-out: AUC), the AUC is under 100 ng·h/mL. Moreover, the pIC50 in data set [2] is over 7.00. Moreover, the pEC50 in data set [3] (setting [4]) is over 7.00.

Turning to `Cc1cc(N)nc(C)c1CNC(=O)c1coc(Cc2ccc3ncc(Cl)cc3c2)n1` [Example 29, N-((6-amino-2,4-dimethylpyridin-3-yl)methyl)-2-((3-chloroquinolin-6-yl)methyl)oxazole-4-carboxamide], the AUC in data set [1] (rat, read-out: AUC) was 1000 to 10000 ng·h/mL. For the same molecule, the pIC50 in data set [2] is over 7.00. Moreover, the pEC50 in data set [3] (setting [4]) is over 7.00.

In the case of `Cc1cnc2c(C(C)(C)O)cc(Cn3ncc(C(=O)NCc4c(C)cc(N)nc4C)c3C#N)cc2c1` [Example 67, N-((6-amino-2,4-dimethylpyridin-3-yl)methyl)-5-cyano-1-((8-(2-hydroxypropan-2-yl)-3-methylquinolin-6-yl)methyl)-1H-pyrazole-4-carboxamide], the AUC in data set [1] (rat, read-out: AUC) is under 100 ng·h/mL. In addition, the pIC50 in data set [2] is 5.00 to 6.00. In addition, the pEC50 in data set [3] (setting [4]) is over 7.00.

With `Cc1cc(N)nc(C)c1CNC(=O)c1nn(Cc2ccc3ncc(Cl)cc3c2)c2ccccc12` [Example 13, N-((6-amino-2,4-dimethylpyridin-3-yl)methyl)-1-((3-chloroquinolin-6-yl)methyl)-1H-indazole-3-carboxamide], the AUC in data set [1] (rat, read-out: AUC) was 100 to 1000 ng·h/mL. The pIC50 in data set [2] was over 7.00. The pEC50 in data set [3] is over 7.00.

With `Cc1cc(N)nc(C)c1CNC(=O)c1cn(Cc2ccc3ncc(Cl)cc3c2)c2cncc(C#N)c12` [Example 123, N-((6-amino-2,4-dimethylpyridin-3-yl)methyl)-1-((3-chloroquinolin-6-yl)methyl)-4-cyano-1H-pyrrolo[2,3-c]pyridine-3-carboxamide], the AUC in data set [1] (rat, read-out: AUC) is under 100 ng·h/mL. For the same molecule, the pIC50 in data set [2] is over 7.00. Further, the pEC50 in data set [3] is over 7.00.

In the case of `Cc1cc(N)nc(C)c1CNC(=O)c1nc(Cc2ccc3ncc(Cl)cc3c2)no1` [Example 6, N-((6-amino-2,4-dimethylpyridin-3-yl)methyl)-3-((3-chloroquinolin-6-yl)methyl)-1,2,4-oxadiazole-5-carboxamide], the AUC in data set [1] (rat, read-out: AUC) lay in the range of 100 to 1000 ng·h/mL. In data set [2], the negative-log IC50 (pIC50) is over 7.00. Moreover, the pEC50 in data set [3] (setting [4]) is over 7.00.
